Test results taken from patent US7456133B2, “Substituted arylketones” (Bayer CropScience AG, priority 2001, dated 2008).

Legend:
[1] = Log P by reversed-phase HPLC (C 18), acidic range; type: physicochemical; conditions: for chromatographic logP: reversed-phase HPLC column (C 18), given in the preparation examples, acidic or neutral range not given
Method: Log P values given in the tables were determined in accordance with EEC Directive 79/831 Annex V.A8 by HPLC (High Performance Liquid Chromatography) using a reversed-phase column (C 18). Temperature: 43° C. (a) Mobile phases for the determination in the acidic range: 0.1% aqueous phosphoric acid, acetonitrile; linear gradient from 10% acetonitrile to 90% acetonitrile—the corresponding measurement results in Tables 1 and 2 are labelled^a).

weeds = experiment: Post-emergence test, damage to weeds; type: in vivo; conditions: test plants of 5-15 cm sprayed, rated after three weeks
Method: Solvent: 5 part by weight of acetone
Emulsifier: 1 part by weight of alkylaryl polyglycol ether
To produce a suitable preparation of active compound, 1 part by weight of active compound is mixed with the stated amount of solvent, the stated amount of emulsifier is added and the concentrate is diluted with water to the desired concentration.
Test plants of a height of 5-15 cm are sprayed with the preparation of active compound such that the particular amounts of active compound desired are applied per unit area. The concentration of the spray liquor is chosen such that the particular amounts of active compound desired are applied in 1000 l of water/ha.
After three weeks, the degree of damage to the plants is rated in % damage in comparison to the development of the untreated control. The figures denote: • 0%=no effect (like untreated control) • 100%=total destruction

[2] = Table 1, labelled a): acidic range, 0.1% aqueous phosphoric acid/acetonitrile gradient, 43° C.
[3] = reversed-phase HPLC (C 18), acidic range: 0.1% aqueous phosphoric acid, acetonitrile; 43° C.; labelled a)

Compound | log P [1, 2] | further results
CNC(=O)N(C)Cc1c(Cl)ccc(C(=O)C2C(=O)CCCC2=O)c1Cl [Example I-2-59] | log P = 1.81^a) | –
CN(C)C(=O)NCc1c(Cl)ccc(C(=O)c2cnn(C)c2O)c1Cl [Example I-2-23] | log P = 1.13^a) | –
CC(C)N(Cc1c(Cl)ccc(C(=O)C2C(=O)CCCC2=O)c1Cl)C(N)=O [Example I-2-12] | log P = 2.03^a) | –
CC(C)NC(=O)N(Cc1ccc(C(=O)C2C(=O)CCCC2=O)c([N+](=O)[O-])c1)c1ccccc1 [Example I-3-10] | – | log P [1, 3]: log P = 2.94^a)
CCNC(=O)N(Cc1ccc(C(=O)c2cnn(C)c2O)c([N+](=O)[O-])c1)c1ccccc1 [Example I-3-9] | – | log P [1, 3]: log P = 1.75^a)
CNC(=S)N(C)Cc1c(S(C)(=O)=O)ccc(C(=O)C2C(=O)CCCC2=O)c1Cl [Example I-2-63] | log P = 1.81^a) | –
CCOC(=O)N(Cc1c(Cl)ccc(C(=O)c2cnn(C)c2O)c1Cl)C(C)C [Example I-2-45] | log P = 2.69^a) | –
O=C1CCCC(=O)C1C(=O)c1ccc(Cl)c(CNC(=S)Nc2ccccc2)c1Cl [Example I-2-9] | log P = 3.05^a) | –
Cn1ncc(C(=O)c2ccc(Cl)c(OCCNC(N)=O)c2Cl)c1O [Example I-2-119] | log P = 1.22^a) | –
CC(C)N(Cc1ccc(C(=O)C2C(=O)CCCC2=O)c([N+](=O)[O-])c1)C(=O)Oc1ccccc1 [Example I-3-39] | – | log P [1, 3]: log P = 3.53^a)
CCNC(=O)N(Cc1ccc(C(=O)C2C(=O)CCCC2=O)c([N+](=O)[O-])c1)c1ccccc1 [Example I-3-8] | – | log P [1, 3]: log P = 2.60^a)
CNC(=O)N(C)Cc1c(Cl)ccc(C(=O)c2cnn(C)c2O)c1Cl [Example I-2-60] | log P = 1.11^a) | –
CCOC(=O)N(Cc1c(Cl)ccc(C(=O)C2C(=O)CCCC2=O)c1Cl)C(C)C [Example I-2-44] | log P = 3.69^a) | –
CN(C)C(=O)NCc1c(S(C)(=O)=O)ccc(C(=O)c2cnn(C)c2O)c1Cl [Example I-2-83] | log P = 0.77^a) | –
CC(C)NC(=O)N(Cc1c(Cl)ccc(C(=O)C2C(=O)CCCC2=O)c1Cl)C(C)C [Example I-2-10] | log P = 2.86^a) | –
CNC(=O)N(C)Cc1ccc(C(=O)c2cnn(C)c2O)c([N+](=O)[O-])c1 [Example I-3-25] | – | log P [1, 3]: log P = 0.68^a)
CC(C)N(Cc1c(Cl)ccc(C(=O)c2cnn(C)c2O)c1Cl)C(N)=O [Example I-2-14] | log P = 1.32^a) | –
CCNC(=O)NCc1c(S(C)(=O)=O)ccc(C(=O)C2C(=O)CCCC2=O)c1Cl [Example I-2-66] | log P = 1.57^a) | –
CCOC(=O)c1ccc(Cl)c(OCCCl)c1Cl [ethyl 2,4-dichloro-3-(2-chloro-ethoxy)-benzoate] | – | chromatographic logP [1]: 3.76
CCOC(=O)N(Cc1ccc(C(=O)C2C(=O)CCCC2=O)c([N+](=O)[O-])c1)C(C)C [Example I-3-41] | – | log P [1, 3]: log P = 3.04^a)

Compound | log P [1, 2] | further results
CN(C)C(=O)N(C)Cc1c(Cl)ccc(C(=O)C2C(=O)CCCC2=O)c1Cl [Example I-2-61] | log P = 2.26^a) | –
CN(C)C(=O)NCc1c(S(C)(=O)=O)ccc(C(=O)C2C(=O)CCCC2=O)c1Cl [Example I-2-82] | log P = 1.58^a) | –
Cc1ccccc1NC(=O)NCc1c(Cl)ccc(C(=O)c2cnn(C)c2O)c1Cl [Example I-2-19] | log P = 1.95^a) | –
CNC(=S)NCCOc1c(Cl)ccc(C(=O)C2C(=O)CCCC2=O)c1Cl [Example I-2-75] | log P = 2.23^a) | –
COCC(=O)NCCOc1c(Cl)ccc(C(=O)C2C(=O)CCCC2=O)c1Cl [Example I-2-13] | log P = 2.12^a) | –
CC(C)N(Cc1ccc(C(=O)c2cnn(C)c2O)c([N+](=O)[O-])c1)C(=O)N(C)C [Example I-3-7] | – | log P [1, 3]: log P = 1.63^a)
CC(C)N(Cc1ccc(C(=O)c2cnn(C)c2O)c([N+](=O)[O-])c1)C(=O)Oc1ccccc1 [Example I-3-40] | – | log P [1, 3]: log P = 2.59^a)
O=C(NCCOc1c(Cl)ccc(C(=O)C2C(=O)CCCC2=O)c1Cl)C1CC1 [Example I-2-68] | log P = 2.28^a) | –
Cc1ccccc1NC(=O)NCc1c(S(C)(=O)=O)ccc(C(=O)C2C(=O)CCCC2=O)c1Cl [Example I-2-140] | log P = 2.35^a) | –
CCn1ncc(C(=O)c2ccc(Cl)c(OCCN)c2Cl)c1O [II-1, [3-(2-amino-ethoxy)-2,4-dichloro-phenyl]-(1-ethyl-5-hydroxy-1H-pyrazol-4-yl)-methanone] | – | chromatographic logP [1]: 0.72
CC(C)NC(=O)N(Cc1c(Cl)ccc(C(=O)c2cnn(C)c2O)c1Cl)C(C)C [Example I-2-11] | log P = 2.02^a) | –
CCn1ncc(C(=O)c2ccc(Cl)c(OCCNC(C)=O)c2Cl)c1OCc1ccc(Br)cc1 [Example I-2-4, N-{2-[3-({5-[(4-bromo-benzyl)-oxy]-1-ethyl-1H-pyrazol-4-yl}-carbonyl)-2,6-dichloro-phenoxy]-ethyl}-acetamide] | – | chromatographic logP [1]: 2.06; activity against weeds (weeds): strong activity
CC(C)N(Cc1c(Cl)ccc(C(=O)c2cnn(C)c2O)c1Cl)C(=O)N(C)C [Example I-2-18] | log P = 2.00^a) | –
CCn1ncc(C(=O)c2ccc(Cl)c(OCCNC(=S)NC)c2Cl)c1O [Example I-2-2, N-(2-{2,6-dichloro-3-[(1-ethyl-5-hydroxy-1H-pyrazol-4-yl)-carbonyl]-phenoxy}-ethyl)-N′-methyl-thiourea] | – | chromatographic logP [1]: 1.6
CCNC(=O)N(Cc1c(Cl)ccc(C(=O)C2C(=O)CCCC2=O)c1Cl)C(C)C [Example I-2-15] | log P = 2.33^a) | –
CC(C)N(Cc1c(Cl)ccc(C(=O)c2cnn(C)c2O)c1Cl)C(=O)Oc1ccccc1 [Example I-2-43] | log P = 3.19^a) | –
Cc1ccccc1NC(=O)NCc1c(S(C)(=O)=O)ccc(C(=O)c2cnn(C)c2O)c1Cl [Example I-2-81] | log P = 1.58^a) | –
CC(C)OC(=O)NCCOc1c(Cl)ccc(C(=O)C2C(=O)CCCC2=O)c1Cl [Example I-2-69] | log P = 2.98^a) | –
CCOC(=O)N(Cc1ccc(C(=O)c2cnn(C)c2O)c([N+](=O)[O-])c1)C(C)C [Example I-3-42] | – | log P [1, 3]: log P = 2.06^a)
CC(C)NC(=O)N(Cc1c(Cl)ccc(C(=O)C2C(=O)CCCC2=O)c1Cl)C1CC1 [Example I-2-56] | log P = 2.75^a) | –

Compound | log P [1, 2] | further results
CCn1ncc(C(=O)c2ccc(Cl)c(OCCCl)c2Cl)c1O [[2,4-dichloro-3-(2-chloro-ethoxy)-phenyl]-(1-ethyl-5-hydroxy-1H-pyrazol-4-yl)-methanone] | – | chromatographic logP [1]: 2.73
CNC(=S)N(Cc1c(Cl)ccc(C(=O)c2cnn(C)c2O)c1Cl)C(C)C [Example I-2-58] | log P = 1.91^a) | –
CN(C)C(=O)N(Cc1c(Cl)ccc(C(=O)C2C(=O)CCCC2=O)c1Cl)C1CC1 [Example I-2-24] | log P = 2.45^a) | –
Cn1ncc(C(=O)c2ccc(Cl)c(OCCNC(N)=O)c2Cl)c1O [Example I-2-118] | log P = 1.66^a) | –
CN(C)C(=O)NCc1c(Cl)ccc(C(=O)C2C(=O)CCCC2=O)c1Cl [Example I-2-21] | log P = 1.87^a) | –
Cn1ncc(C(=O)c2ccc(S(C)(=O)=O)c(CNC(N)=O)c2Cl)c1O [Example I-2-65] | log P = 0.30^a) | –
CCNC(=O)N(Cc1c(Cl)ccc(C(=O)c2cnn(C)c2O)c1Cl)C(C)C [Example I-2-16] | log P = 1.42^a) | –
CC(C)NC(=O)N(Cc1ccc(C(=O)C2C(=O)CCCC2=O)c([N+](=O)[O-])c1)C(C)C [Example I-3-5] | – | log P [1, 3]: log P = 2.53^a)
CC(C)NC(=O)N(Cc1ccc(C(=O)c2cnn(C)c2O)c([N+](=O)[O-])c1)C(C)C [Example I-3-6] | – | log P [1, 3]: log P = 1.64^a)
O=C(O)c1ccc(Cl)c(OCCCl)c1Cl [2,4-dichloro-3-(2-chloro-ethoxy)-benzoic acid] | – | chromatographic logP [1]: 2.31
CC(C)NC(=O)NCc1c(Cl)ccc(C(=O)c2cnn(C)c2O)c1Cl [Example I-2-22] | log P = 1.35^a) | –
CC(C)N(Cc1c(Cl)ccc(C(=O)C2C(=O)CCCC2=O)c1Cl)C(=O)N(C)C [Example I-2-17] | log P = 2.82^a) | –
CNC(=O)NCCOc1c(Cl)ccc(C(=O)C2C(=O)CCCC2=O)c1Cl [Example I-2-73] | log P = 1.84^a) | –
CNC(=S)N(C)Cc1c(S(C)(=O)=O)ccc(C(=O)c2cnn(C)c2O)c1Cl [Example I-2-64] | log P = 1.00^a) | –
CC(C)NC(=O)N(Cc1ccc(C(=O)c2cnn(C)c2O)c([N+](=O)[O-])c1)c1ccccc1 [Example I-3-11] | – | log P [1, 3]: log P = 2.05^a)
CN(C)C(=O)N(C)Cc1c(Cl)ccc(C(=O)c2cnn(C)c2O)c1Cl [Example I-2-62] | log P = 1.48^a) | –
CC(C)N(Cc1c(Cl)ccc(C(=O)C2C(=O)CCCC2=O)c1Cl)C(=O)Oc1ccccc1 [Example I-2-42] | log P = 4.25^a) | –
CN(C)C(=O)N(Cc1c(Cl)ccc(C(=O)c2cnn(C)c2O)c1Cl)c1ccc(Cl)cc1 [Example I-2-25] | log P = 1.69^a) | –
